Test results published in patent publication US20260083708A1, “IL-17 MODULATORS AND USES THEREOF” (NNOCARE PHARMA INC., priority 2024, published 2026).

Key:
[1] = system: rat collagen induced arthritis (CIA) model; experiment: In vivo efficacy study in rat collagen induced arthritis (CIA) model; settings: female Lewis rats, 20 mg/kg PO once a day, 14 days
Procedure: Example 45. In Vivo Efficacy Study in Rat Collagen Induced Arthritis (CIA) Model
Bovine type II collagen solution (Chondrex) was emulsified with an equal volume of incomplete Freund's adjuvant (IFA, Sigma) to achieve an emulsion with a collagen concentration of 1 mg/mL. Female Lewis rats were immunized with the emulsion (200 μL per rat) through subcutaneous injection at the base of tail. After seven days from the initial immunization, rats received a booster injection of the emulsion (100 μL per rat). Each paw of the rat was evaluated and scored on a 0-4 scale based on arthritis severity, and the arthritis score of each rat was the sum of scores from four paws. When the arthritis scores reached 2-3, rats were randomized into four groups and dosed once a day via oral gavage (PO) with vehicle, compounds 35, 49 and 66 for 14 days, respectively. The arthritis score was assessed every other day. Efficacy was calculated by [1−(T14−T0)/(V14−V0)]×100%, where T14 and V14 are the average arthritis scores of the treatment group and the vehicle group on Day 14 of measurement, respectively, while T0 and V0 are the average arthritis scores of the treatment group and the vehicle group on Day 0, respectively. Statistical significance of difference in arthritis scores between the treatment and vehicle groups was analyzed using one-way ANOVA followed by Dunnett's test, and P<0.05 was considered statistically significant.

[2] = system: IL-17AF-induced IL-17 signaling pathway; experiment: Inhibition of IL-17AF-induced IL-17 signaling pathway; assay type: cell-based; settings: Homo sapiens; IL-17AF used instead of IL-17AA; read-out: IC50 for Inhibiting IL-AF Signaling
Summary of the method: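 HEK293-derived HEK-Blue IL-17 cells (IL-17RA/RC, ACT1, NF-κB/AP-1-driven SEAP) preincubated 1 hour at 37° C with serially diluted compound from 10 μM, then stimulated with IL-17AF for 20 hours. SEAP read colorimetrically at 620 nm; IC50 from 4-parameter fit of % inhibition.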

[3] = system: IL-17AA-induced IL-17 signaling pathway; experiment: Inhibition of IL-17AA-induced IL-17 signaling pathway in HEK-Blue IL-17 reporter cells (SEAP); assay type: cell-based; settings: Homo sapiens; HEK-Blue IL-17 cells, IL-17AA 2.5 ng/mL, 20 hours; read-out: IC50 for Inhibiting IL-AA Signaling
Summary of the method: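 HEK-Blue IL-17 cells (HEK293 expressing human IL-17RA/RC, ACT1 and NF-κB/AP-1-driven SEAP), 10,000/well, pre-incubated with compound (serial dilution from 10 μM) for 1 h at 37 °C, then stimulated with IL-17AA at 2.5 ng/mL final for 20 h. SEAP in supernatant read with Quanti-Blue at 620 nm; IC50 by 4-parameter fit.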

[4] = target: T1, IL-17AA and IL-17RA (Homo sapiens, UniProt Q16552); experiment: Competitive inhibition of human IL-17AA and IL-17RA binding (HTRF); settings: recombinant IL-17AA (His-tag) and IL-17RA (hFc-tag); read-out: IC50 for Inhibiting IL-AA/IL-RA Binding
T1 construct: purchased Sino Biological 12047-H07B (IL-17AA); 10895-H02H (IL-17RA)
T1 sequence (Q16552 24-155): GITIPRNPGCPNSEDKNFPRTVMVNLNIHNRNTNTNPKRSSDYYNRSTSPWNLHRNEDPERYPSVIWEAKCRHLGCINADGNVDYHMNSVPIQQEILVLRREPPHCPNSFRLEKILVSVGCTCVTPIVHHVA
Summary of the method: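 His-IL-17AA (1 nM) premixed 1 h with anti-His-Tb (0.4 nM), and Fc-IL-17RA (1 nM) with anti-IgG-d2 (1 μg/mL); these are pre-mix levels. Compounds, diluted from 10 μM, preincubated 2 h RT with IL-17AA mix; IL-17RA mix then added, 20 min. 665/615 ratio vs no-compound and no-IL-17AA controls; IC50 by 4-parameter fit.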

SMILES	IC50 [2]	IC50 [3]	IC50 [4]	suppression of arthritis disease progression (arthritis score) [1]
COCC(=O)N[C@@H](c1ncnn1CC1CC1)[C@@H](C)c1ccc(NC(=O)[C@@H](NC(=O)c2nonc2C)C(C2CC2)C2CC2)c(F)c1 [Compound 39, N-((S)-1,1-dicyclopropyl-3-((4-((1R,2S)-1-(1-(cyclopropylmethyl)-1H-1,2,4-triazol-5-yl)-1-(2-methoxyacetamido)propan-2-yl)-2-fluorophenyl)amino)-3-oxopropan-2-yl)-4-methyl-1,2,5-oxadiazole-3-carboxamide]	2.6 nM	1.8 nM	2.2 nM	completely suppressed arthritis disease progression
CCn1nccc1C(=O)N[C@H](C(=O)Nc1ccc([C@H](C)[C@@H](NC(=O)COC)c2nncn2CC23CC(F)(C2)C3)cc1F)C(C1CC1)C1CC1 [Compound 23, N-((S)-1,1-dicyclopropyl-3-((2-fluoro-4-((1R,2S)-1-(4-((3-fluorobicyclo[1.1.1]pentan-1-yl)methyl)-4H-1,2,4-triazol-3-yl)-1-(2-methoxyacetamido)propan-2-yl)phenyl)amino)-3-oxopropan-2-yl)-1-ethyl-1H-pyrazole-5-carboxamide]	91 nM	25 nM	21 nM	
CCn1nccc1C(=O)N[C@H](C(=O)Nc1ccc([C@H](C)[C@@H](NC(=O)COC)c2nnc(C3CCN3C)s2)cc1F)C(C1CC1)C1CC1 (stereo partly drawn) [Compound 59, N-((2S)-1,1-dicyclopropyl-3-((2-fluoro-4-((1R,2S)-1-(2-methoxyacetamido)-1-(5-(1-methylazetidin-2-yl)-1,3,4-thiadiazol-2-yl)propan-2-yl)phenyl)amino)-3-oxopropan-2-yl)-1-ethyl-1H-pyrazole-5-carboxamide]	1550 nM	946 nM	235 nM	
CCn1nccc1C(=O)N[C@H](C(=O)Nc1ccc([C@H](C)[C@@H](NC(=O)COC)c2nnc(C)n2CC2CC2)cc1F)C(C1CC1)C1CC1 [Compound 18, N-((S)-1,1-dicyclopropyl-3-((4-((1R,2S)-1-(4-(cyclopropylmethyl)-5-methyl-4H-1,2,4-triazol-3-yl)-1-(2-methoxyacetamido)propan-2-yl)-2-fluorophenyl)amino)-3-oxopropan-2-yl)-1-ethyl-1H-pyrazole-5-carboxamide]	51 nM	14 nM	17 nM	
CCc1nonc1C(=O)N[C@H](C(=O)Nc1ccc([C@H](C)[C@@H](NC(=O)COC)c2nncn2CC2CC2)cc1F)C(C1CC1)C1CC1 [Compound 14, N-((S)-1,1-dicyclopropyl-3-((4-((1R,2S)-1-(4-(cyclopropylmethyl)-4H-1,2,4-triazol-3-yl)-1-(2-methoxyacetamido)propan-2-yl)-2-fluorophenyl)amino)-3-oxopropan-2-yl)-4-ethyl-1,2,5-oxadiazole-3-carboxamide]	9 nM	2.3 nM	2.9 nM	
CCn1nccc1C(=O)N[C@H](C(=O)Nc1ncc([C@H](C)[C@@H](NC(=O)COC)c2ncnn2CC2CC2)cc1F)C(C1CC1)C1CC1 [Compound 46, N-((S)-1,1-dicyclopropyl-3-((5-((1R,2S)-1-(1-(cyclopropylmethyl)-1H-1,2,4-triazol-5-yl)-1-(2-methoxyacetamido)propan-2-yl)-3-fluoropyridin-2-yl)amino)-3-oxopropan-2-yl)-1-ethyl-1H-pyrazole-5-carboxamide]	159 nM	124 nM	29 nM	
COCC(=O)N[C@@H](c1ncnn1CC1CC1)[C@@H](C)c1ccc(NC(=O)[C@@H](NC(=O)c2ccnn2C)C(C2CC2)C2CC2)c(F)c1 [Compound 53, N-((S)-1,1-dicyclopropyl-3-((4-((1R,2S)-1-(1-(cyclopropylmethyl)-1H-1,2,4-triazol-5-yl)-1-(2-methoxyacetamido)propan-2-yl)-2-fluorophenyl)amino)-3-oxopropan-2-yl)-1-methyl-1H-pyrazole-5-carboxamide]	16 nM	5.6 nM	7.4 nM	
CCn1nccc1C(=O)N[C@H](C(=O)Nc1ccc([C@H](C)[C@@H](NC(=O)COC)c2ncnn2CC2CC2)cc1F)C1CCCCCC1 [Compound 42, N-((S)-1-cycloheptyl-2-((4-((1R,2S)-1-(1-(cyclopropylmethyl)-1H-1,2,4-triazol-5-yl)-1-(2-methoxyacetamido)propan-2-yl)-2-fluorophenyl)amino)-2-oxoethyl)-1-ethyl-1H-pyrazole-5-carboxamide]	11 nM	5.1 nM	4.9 nM	
COCC(=O)N[C@@H](c1nncn1CC1CC1)[C@@H](C)c1ccc(NC(=O)[C@@H](NC(=O)C2(F)CC2)C(C2CC2)C2CC2)c(F)c1 [Compound 11, N-((S)-1,1-dicyclopropyl-3-((4-((1R,2S)-1-(4-(cyclopropylmethyl)-4H-1,2,4-triazol-3-yl)-1-(2-methoxyacetamido)propan-2-yl)-2-fluorophenyl)amino)-3-oxopropan-2-yl)-1-fluorocyclopropane-1-carboxamide]	92 nM	44 nM	13 nM	

Further lines, with some results ahead:

IC50 [2]	IC50 [3]	IC50 [4]	SMILES	suppression of arthritis disease progression (arthritis score) [1]
3.6 nM	2.8 nM	0.9 nM	Cc1nonc1C(=O)N[C@H](C(=O)Nc1ccc([C@H](C)[C@@H](NC(=O)COC(F)F)c2ncnn2CC2CC2)cc1F)C(C1CC1)C1CC1 [Compound 65, N-((S)-1,1-dicyclopropyl-3-((4-((1R,2S)-1-(1-(cyclopropylmethyl)-1H-1,2,4-triazol-5-yl)-1-(2-(difluoromethoxy)acetamido)propan-2-yl)-2-fluorophenyl)amino)-3-oxopropan-2-yl)-4-methyl-1,2,5-oxadiazole-3-carboxamide]	
85 nM	63 nM	31 nM	CCC(=O)N[C@@H](c1ncnn1CC1CC1)[C@@H](C)c1ccc(NC(=O)[C@H](NC(=O)c2nonc2C)C(C2CC2)C2CC2)c(F)c1 [Compound 84, N-((R)-1,1-dicyclopropyl-3-((4-((1R,2S)-1-(1-(cyclopropylmethyl)-1H-1,2,4-triazol-5-yl)-1-propionamidopropan-2-yl)-2-fluorophenyl)amino)-3-oxopropan-2-yl)-4-methyl-1,2,5-oxadiazole-3-carboxamide]	
18.4 nM	6.5 nM	2.6 nM	[2H]C([2H])([2H])n1nccc1C(=O)N[C@H](C(=O)Nc1ccc([C@H](C)[C@@H](NC(=O)CC)c2ncnn2CC2CC2)cc1F)C(C1CC1)C1CC1 [Compound 62, N-((S)-1,1-dicyclopropyl-3-((4-((1R,2S)-1-(1-(cyclopropylmethyl)-1H-1,2,4-triazol-5-yl)-1-propionamidopropan-2-yl)-2-fluorophenyl)amino)-3-oxopropan-2-yl)-1-(methyl-d3)-1H-pyrazole-5-carboxamide]	
228 nM	143 nM	23 nM	[2H]C([2H])([2H])n1ccc(C(=O)N[C@H](C(=O)Nc2ccc([C@H](C)[C@@H](NC(=O)CC)c3ncnn3CC3CC3)cc2F)C(C2CC2)C2CC2)n1 [Compound 86, N-((S)-1,1-dicyclopropyl-3-((4-((1R,2S)-1-(1-(cyclopropylmethyl)-1H-1,2,4-triazol-5-yl)-1-propionamidopropan-2-yl)-2-fluorophenyl)amino)-3-oxopropan-2-yl)-1-(methyl-d3)-1H-pyrazole-3-carboxamide]	
16 nM	9.4 nM	4.5 nM	CCC(=O)N[C@@H](c1ncn(CC2CC2)n1)[C@@H](C)c1ccc(NC(=O)[C@@H](NC(=O)c2nonc2C)C(C2CC2)C2CC2)c(F)c1 [Compound 81, N-((S)-1,1-dicyclopropyl-3-((4-((1R,2S)-1-(1-(cyclopropylmethyl)-1H-1,2,4-triazol-3-yl)-1-propionamidopropan-2-yl)-2-fluorophenyl)amino)-3-oxopropan-2-yl)-4-methyl-1,2,5-oxadiazole-3-carboxamide]	
